From publication PMC8512560, “Design, Synthesis, and Antipoliferative Activities of Novel Substituted Imidazole-Thione Linked Benzotriazole Derivatives” (Molecules, 2021)
Where “and” joins values, the source holds several entries; their conditions need not be identical. Equal values may be shown once. Read-outs that look alike come from different tables or passages of the source.

Columns and labels:
[1] = system: HCT-116 human colon cancer cell line; assay: MTT viability assay, HCT-116; type: cell-based; conditions: mean ± SD of three independent experiments, read-out: Antiproliferative Activities IC50, HCT-116
Experimental: (§1) All the human tumour cell lines MCF-7, HL-60, HCT-116, and HUVEC were cultured in Dulbecco’s Modified Eagle’s Medium (DMEM) with 10% fetal bovine serum, 2 mM L-glutamine and 100 µg/mL penicillin/streptomycin. Cells were maintained at 37 °C in 5% CO2 in a humidified incubator. All cells were sub-cultured three times/week by trypsinization using TrypLE Express (1X).
(§2) The Benzotriazole compounds were evaluated for antiproliferative effect using the MTT viability assay of various cancer cell lines (MCF-7, HCT-116 and HL-60) and the normal human umbilical vein endothelial cell line (HUVEC) to calculate the relative IC50 values for each compound. Cells were seeded in triplicate in 96-well plates at a density of 10 × 10^3 cells/mL in a total volume of 200 µL per well. 0.1% of DMSO was used as a vehicle control. After this time, they were treated with 2 µL test compound which had been pre-prepared as stock solutions in ethanol to furnish the concentration range of study, 10 nM to 100 µM, and re-incubated for a further 72 h. The culture medium was then removed, and the cells washed with 100 µL phosphate buffered saline (PBS) and 50 µL MTT added, to reach a final concentration of 1 mg/mL MTT added. Cells were incubated for 2 h in darkness at 37 °C. At this point solubilisation was begun through the addition of […] DMSO and the cells maintained at room temperature in darkness for 20 min to ensure thorough colour diffusion before reading the absorbance. Plates were incubated for 72 h at 37 °C + 5% CO2. The MTT (5 mg/mL in PBS) was added and incubated for another 4 h, and the optical density was detected with a microplate reader at 570 nm. Results were expressed as percentage viability relative to vehicle control (100%). Dose response curves were plotted and IC50 values (concentration of drug resulting in 50% reduction in cell survival) were obtained using the commercial software package Prism (GraphPad Software, Inc., La Jolla, CA, USA). All the experiments were repeated in at least three independent experiments.

[2] = system: HUVEC human umbilical vein endothelial cell line; assay: MTT viability assay, normal HUVEC cells; type: cell-based; conditions: 72 h, mean ± SD of three independent experiments
Experimental: as §1, §2

[3] = system: MCF-7, HL-60 and HCT-116 cancer cell lines; assay: MTT viability assay, values pooled over the cancer cell lines; type: cell-based, human; conditions: for IC50: Homo sapiens, MTT; for Fold more active than methyl-containing derivative BI2 (antiproliferative): relative to BI2, cell line not specified
Experimental: as §1, §2

bovine brain tubulin = assay: Tubulin polymerization assay (turbidimetric, kit BK006); type: biochemical; conditions: read-out: Anti-Tubulin Activity IC50 ± SD (inhibition of tubulin polymerization)
Experimental: The assembly of purified bovine tubulin was monitored using a kit, BK006, purchased from Cytoskeleton Inc., (Denver, CO, USA). The assay was carried out in accordance with the manufacturer’s instructions using the standard assay conditions. Briefly, purified ([…]) in a buffer consisting of 80 mM PIPES (pH 6.9), 0.5 mM EGTA, 2 mM MgCl2, 1 mM GTP and 10% glycerol was incubated at 37 °C in the presence of either vehicle (2% (v/v) ddH2O), CA-4, benzotriazole compounds. Light was scattered proportionally to the concentration of polymerized microtubules in the assay. Therefore, the tubulin assembly was monitored turbidimetrically at 340 nm in a Spectramax 340 PC spectrophotometer (Molecular Devices, Sunnyvale, CA, USA). The concentration that inhibits tubulin polymerization by 50% (IC50) was determined using area under the curve (AUC). The AUC of the untreated controls were considered as 100% polymerization. The IC50 value for each compound was computed using GraphPad Prism Software.

[4] = system: MCF-7 human breast cancer cell line; assay: MTT viability assay, MCF-7; type: cell-based; conditions: mean ± SD of three independent experiments, read-out: Antiproliferative Activities IC50, MCF-7
Experimental: as §1, §2

[5] = system: HL-60 human leukemia cancer cell line; assay: MTT viability assay, HL-60; type: cell-based; conditions: mean ± SD of three independent experiments, read-out: Antiproliferative Activities IC50, HL-60
Experimental: as §1, §2

[6] = system: colchicine binding site of tubulin; assay: Colchicine site competitive binding assay ([3H]colchicine); conditions: tubulin and colchicine at 1 and 5 µM
Experimental: The affinity of Benzotriazole compounds to colchicine binding site was determined using a Colchicine Site Competitive Assay kit CytoDYNAMIX Screen15 (Cytoskeleton, Inc., Denver, CO, USA) using the standard protocol of the manufacturer to determine Ki values (μM). Biotin-labelled tubulin ([…]) and the test compounds (positive control colchicine, negative control vinblastine, G-1, fluorescent G-1, or 2-ME) in a 96-well plate (final volume: 100 μL). After incubating for 2 h at 37 °C with gentle shaking, streptavidin-labelled yttrium SPA beads (80 μg in 20 μL reaction buffer, PerkinElmer, Waltham, MA) were added to each well and incubated for 30 min at 4 °C. The plates were then read on a scintillation counter (Packard Instrument, Topcount Microplate Reader) and the percentage of inhibition was calculated.

[7] = HL-60 and HCT-116 only, read-out: IC50 values range versus HL-60 and HCT-116 cells
[8] = MCF-7, HL-60 and HCT-116, read-out: IC50 values range over the three cancer cell lines

IC50 ([1]; Homo sapiens, HCT-116, 72 h)	IC50 [3, 7]	IC50 [3, 8]	IC50 (bovine brain tubulin)	melting point	IC50 ([4]; Homo sapiens, MCF7, 72 h)	IC50 ([5]; Homo sapiens, HL-60, 72 h)	Colchicine Binding % ± SD (inhibition of [3H]colchicine binding), 1 µM Drug [6]	Colchicine Binding % ± SD (inhibition of [3H]colchicine binding), 5 µM Drug [6]	IC50 ([1]; 72 h)	IC50 ([4]; 72 h)	IC50 ([5]; 72 h)	Compound	IC50 [2]	Fold more active than methyl-containing derivative BI2 (antiproliferative) [3]
1.51 ± 0.12 µM	1.51 to 7.38 µM	1.51 to 7.29 µM	928 ± 30 nM	187 to 189 °C	7.29 ± 0.21 µM	3.28 ± 0.22 µM	63.23 ± 2%	77.63 ± 2%	–	–	–	S=c1[nH]c(-n2nnc3ccccc32)cn1-c1ccc(Cl)cc1 [BI6, 4-(1H-Benzo[d][1,2,3]Triazol-1-yl)-1-(4-Chlorophenyl)-1H-Imidazole-2(3H)-Thione]	27.4 ± 1.31 µM	–
–	–	–	–	196 to 198 °C	–	–	–	–	–	–	–	Fc1ccccc1N1CC(n2nnc3ccccc32)=NC1=S [BI10, 4-(1H-Benzo[d][1,2,3]Triazol-1-yl)-1-(2-Florophenyl)-1H-Imidazole-2(3H)-Thione]	–	–
17.4 ± 1.12 µM	–	11.5 to 38.2 µM	–	267 to 269 °C	38.2 ± 1.09 µM	11.5 ± 0.11 µM	–	–	–	–	–	S=c1[nH]c(-n2nnc3ccccc32)cn1-c1ccc(Br)cc1 [BI11, 4-(1H-Benzo[d][1,2,3]Triazol-1-yl)-1-(4-Bromophenyl)-1H-Imidazole-2(3H)-Thione]	47.8 ± 2.29 µM	–
2.1 µM	–	1.51 to 15.5 µM	490 nM and 497 nM	267 to 269 °C	4.4 µM	1.1 µM	61.78 ± 2%	81.34 ± 2%	2.15 ± 0.14 µM	4.45 ± 0.13 µM	1.18 ± 0.08 µM	Oc1ccc(-n2cc(-n3nnc4ccccc43)[nH]c2=S)cc1 [BI5, 4-(1H-Benzo[d][1,2,3]Triazol-1-yl)-1-(4-Hydroxyphenyl)-1H-Imidazole-2(3H)-Thione]	4.74 ± 0.23 µM	–
7.38 ± 0.48 µM	1.51 to 7.38 µM	–	840 ± 20 nM	180 to 182 °C	15.5 ± 0.44 µM	3.42 ± 0.23 µM	61.18 ± 2%	79.95 ± 2%	–	–	–	S=c1[nH]c(-n2nnc3ccccc32)cn1-c1ccccc1Cl [BI7, 4-(1H-Benzo[d][1,2,3]Triazol-1-yl)-1-(2-Chlorophenyl)-1H-Imidazole-2(3H)-Thione]	17.3 ± 0.35 µM	–
7.83 ± 0.5 µM	–	–	784 ± 20 nM	217 to 219 °C	6.1 ± 0.75 µM	0.9 ± 0.06 µM	64.67 ± 2%	80.26 ± 2%	–	–	–	NS(=O)(=O)c1ccc(-n2cc(-n3nnc4ccccc43)[nH]c2=S)cc1 [BI12, 4-(4-(1H-Benzo[d][1,2,3]Triazol-1-yl)-2-Thioxo-2,3-Dihydro-1H-Imidazol-1-yl)Benzenesulfonamide]	25.1 ± 1.2 µM	–
–	–	–	–	175 to 177 °C	2.29 ± 0.07 µM	22.1 ± 1.52 µM	–	–	–	–	–	COc1ccc(-n2cc(-n3nnc4ccccc43)[nH]c2=S)cc1 [BI4, 4-(1H-Benzo[d][1,2,3]Triazol-1-yl)-1-(4-Methoxyphenyl)-1H-Imidazole-2(3H)-Thione]	> 100 µM	2.5 fold
14.8 ± 0.95 µM	–	> 10 µM	–	178 to 180 °C	12.5 ± 0.36 µM	37.1 ± 2.54 µM	–	–	–	–	–	Cc1ccc(-n2cc(-n3nnc4ccccc43)[nH]c2=S)cc1 [BI2, 4-(1H-Benzo[d][1,2,3]Triazol-1-yl)-1-(4-Methylphenyl)-1H-Imidazole-2(3H)-Thione]	12.2 ± 0.58 µM	–
17.5 ± 1.13 µM	–	–	–	175 to 177 °C	6.4 ± 0.18 µM	5.23 ± 0.36 µM	–	–	–	–	–	S=c1[nH]c(-n2nnc3ccccc32)cn1-c1ccccc1 [BI1, 4-(1H-Benzo[d][1,2,3]Triazol-1-yl)-1-Phenyl-1H-Imidazole-2(3H)-Thione]	63 ± 3.02 µM	–
2.75 ± 0.18 µM	–	–	928 ± 40 nM	150 to 152 °C	10.6 ± 0.31 µM	3.91 ± 0.27 µM	65.38 ± 2%	86.85 ± 2%	–	–	–	CCc1ccc(-n2cc(-n3nnc4ccccc43)[nH]c2=S)cc1 [BI3, 4-(1H-Benzo[d][1,2,3]Triazol-1-yl)-1-(4-Ethylphenyl)-1H-Imidazole-2(3H)-Thione]	> 100 µM	3.8 fold
2.1 ± 0.14 µM	1.51 to 7.38 µM	1.51 to 15.5 µM	3050 nM	120 to 122 °C	2.66 ± 0.08 µM	5.12 ± 0.35 µM	59.74± 2%	82.13 ± 2%	–	–	–	S=c1[nH]c(-n2nnc3ccccc32)cn1-c1cccc(Cl)c1 [BI8, 4-(1H-Benzo[d][1,2,3]Triazol-1-yl)-1-(3-Chlorophenyl)-1H-Imidazole-2(3H)-Thione]	39.8 ± 1.91 µM	–
